{"source": "paper PMC7884692", "about": "“Arginine glycosylation enhances methylglyoxal detoxification” (Scientific Reports, 2021)", "target": "T1, GloA (Salmonella enterica, UniProt P0A1Q2)", "T1 construct": "full length, His-tag (modified pET28a, tac promoter), E. coli BL21(DE3); unglycosylated form", "T1 sequence (P0A1Q2 1-135)": "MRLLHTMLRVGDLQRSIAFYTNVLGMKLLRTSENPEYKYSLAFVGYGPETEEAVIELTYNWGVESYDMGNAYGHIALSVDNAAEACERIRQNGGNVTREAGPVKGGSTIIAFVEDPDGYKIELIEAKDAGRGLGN", "experiment": "S-lactoylglutathione production at OD240", "format": "biochemical", "conditions": "unglycosylated GloA 50 nM; hemithioacetal from 5 mM glutathione + 5 mM methylglyoxal; 100 mM NaH2PO4 pH 7.0", "data": [{"smiles": "C[C@@H](O)C(=O)SC[C@H](NC(=O)CC[C@H](N)C(=O)O)C(=O)NCC(=O)O", "note": "[S-lactoylglutathione]", "values": [{"measurement": "S-lactoylglutathione production at OD240", "value": "both hemithioacetal consumption and S-lactoylglutathione production was measured as a function of time"}]}]}
